# Data published in US6605754B1, “DNA constructs and plants incorporating them” (priority 1992, dated 2003).
# Assays:
# [1] = test system: alcA:35S chimeric promoter (CAT reporter gene expression); assay: CAT expression from wild type A nidulans alcA-CAT transformants GA2-1 and GA2-5; format: cell-based, Aspergillus nidulans
# Method: Conidial suspensions of A nidulans were grown in supplemented minimal medium containing 0.1% fructose as the carbon source, for 20 hours at 200 revs/min in an orbital incubator at 37° C. Inducing chemical was added to the mycelia at 20 hours and allowed to grow for a further 4 hours. The mycelia was harvested as before. Uninduced mycelia was allowed to grow for 24 hours in the medium described above.
# 300 mgs of mycelia, frozen in liquid nitrogen, was ground in a chilled pestle and mortar with an equal amount of acid washed sand for 20 seconds. 1 ml of extraction buffer, (0.1 M Tris pH 7.5), was added and the mycelia ground for a further 30 seconds. Another 1 ml of extraction buffer was added and the mycelia was ground again for 30 seconds. 1 ml of the ground mycelia mixture was transferred into eppendorfs and centrifuged at 13,000 revs/min for 5 minutes in a microcentrifuge. The supernatant was transferred to new eppendorfs and the protein concentration estimated using the Bradford's assay.
# Stably transformed A nidulans was obtained by co-transforming a pyrG89 strain with the pDJB3 and palcA-CAT/pUC plasmids using the PEG method. Plasmid palcA-CAT/pUC contains the CAT reporter gene between the alcA:35S chimeric promoter and the nos transcription terminator. Two independent transformants (GA2-1 and GA2-5) were obtained which contained uninterrupted copies of the alcA-CAT construct. This was shown by probing genomic DNA, restricted with HindIII, with the 0.7 kb SalI fragment of the CAT gene.
# The CAT activity of the alcA-CAT A nidulans transformants was measured when they were grown under a variety of conditions. FIG. 4 is a graph showing CAT expression from the GA2-1 and GA2-5 transformants (wild type with alcA-CAT construct) growing in 0.1% fructose (F) or 1% glucose (G) in the absence or presence of 50 mM ethyl methyl ketone as inducer (I). […] The induction of CAT was prevented when the transformants were grown in 1% glucose even in the presence of inducer indicating the carbon catabolyte repression function of the alcA promoter was retained.
# FIG. 5 is a graph showing the effect of cyclohexanone concentration (mM) on CAT expression in the transformant GA2-1 growing in 0.1% fructose (F) or 1% glucose (G).
# [2] = test system: alc expression cassette 35S-alcR/alcA-CAT (CAT reporter gene expression); assay: CAT activity in leaves of stably transformed tobacco after leaf paint with inducer; format: in vivo
# Method: Cyclohexanone was applied to the plant leaves as a paint. The cyclohexanone paint consisted of a 10% solution of 950 g/L cyclohexanone, 35 g/L syperonic NDE 1800, 16.5 g/L Tween 85 in thickener. Both surfaces of the leaf were applied with paint at 100 μl solution per 16-25 cm^2 of leaf surface, on days 0 and 2. Leaf tissue was harvested prior to inducer application and at appropriate times after the second application of paint. 1 cm^2 of leaf tissue was removed with a sterile scalpel, put in an eppendorf, and immersed in liquid nitrogen. CAT assays were undertaken within 4 hours of leaf sampling.
# The leaf tissue was allowed to defrost at room temperature for several minutes after storage in liquid nitrogen. A sterile micropestle was used to grind the leaf tissue in the eppendorf for 30 seconds and then 100 μl of 100 mM Tris pH 7.8 was added. The plant mixture was then vortexed for 20 seconds and centrifuged at 13,000 revs/min for 5 minutes. The supernatant was transferred to a new eppendorf. 50 μl of leaf extract was used for a CAT assay and the rest was used to determine the protein concentration wit the Bradford's method.
# CAT assays were undertaken according to the Dupont method as described in Example 4.
# The data obtained from this analysis are shown in FIG. 9: at each time point, results are given in the order S34:D3:T1. Leaves were treated with cyclohexanone leaf paint on day 0 and day 2. Samples of leaf tissue were taken immediately prior to each treatment (0-0 and 2-0 in FIG. 9) and thereafter at seven intervals up until day 3. Protein extracts were made from the leaf samples and CAT activity determined in the samples using the diffusion assay described above.
# The leaves of the plants were painted with a 10% iso-propanol solution at 0 and 60 minutes and the CAT expression of leaf samples was measured at 240 minutes. The CAT expression found in the alcA-CAT and alcA-CAT/35S-alcR transgenic plants at 0 minutes was low as it was in the control untransformed tobacco plants.
# [3] = test system: ADHI expressed from the alcA gene; settings: Creaser et al 1984 / shown previously; cited from earlier work
Structure (SMILES),"CAT activity of the alcA-CAT reporter construct ([1]; GA2-1 and GA2-5, 0.1% fructose, 50 mM inducer)","induction of CAT ([1]; GA2-1 and GA2-5, 1% glucose, 50 mM inducer)",concentration of optimal inducing ability (concentration curve) ([1]; GA2-1 transformant) [mM],induction of CAT expression ([1]; GA2-1 transformant),effect on CAT activity [2],"CAT expression level after application to leaves ([2]; plant D3 (35S-alcR/alcA-CAT), cyclohexanone leaf paint)","time of peak CAT activity after the second inducing treatment ([2]; plant D3, leaf paint on day 0 and day 2) [min]",CAT activity as % of the maximum activity seen in the 35S-alcR/alcA-CAT leaves ([2]; plants T1 and S34 after cyclohexanone leaf paint),inducer strength for alcA / ADHI [3],"increase in CAT activity ([2]; 10% solution painted at 0 and 60 minutes, measured at 240 minutes, alcA-CAT, alcA-CAT/35S-alcR and control plants)",effect on the alc expression cassette ([2]; tobacco plants)
"CCC(C)=O [EMK, butan-2-one (ethyl methyl ketone)]",high,prevented,,,,,,,,,
O=C1CCCCC1 [cyclohexanone],,,25,found to induce CAT expression,no effect,high CAT expression level,160,5-20%,potent inducer,,
"CC(C)O [iso-propanol, propan-2-ol]",,,,,,,,,weak inducer,no significant increase,no apparent effect
